These results are taken from article PMC6269498, “Increased activity of MdFRK2, a high-affinity fructokinase, leads to upregulation of sorbitol metabolism and downregulation of sucrose metabolism in apple leaves” (Horticulture Research, 2018).

The experiment concerns MdFRK1. Nature of the experiment: coupled spectrophotometric assay (phosphoglucoisomerase / G6P dehydrogenase), […] nm. The format is biochemical, Malus domestica. Conditions: 50 mM Tris-HCl pH 8.0, 4 mM MgCl2, 2.5 mM ATP; substrate inhibition above 2 mM fructose.

Molecules are shown by their SMILES.

As to `OCC1(O)OC[C@@H](O)[C@@H](O)[C@@H]1O` (stereo partly shown) [fructose], the Km – broadly, the substrate concentration at which the rate is half of its maximum – was 620 µM.
